Results: patent publication US12188937B2, “Peptoid compound and detection chip coupled with peptoid compound on the surface” (BEIJING BOE TECHNOLOGY DEVELOPMENT CO., LTD., priority 2019, dated 2025)

Target: T1, EpCAM protein (Homo sapiens, UniProt P16422)
T1 construct: purchased Sino Biological Inc
T1 sequence (P16422 24-314): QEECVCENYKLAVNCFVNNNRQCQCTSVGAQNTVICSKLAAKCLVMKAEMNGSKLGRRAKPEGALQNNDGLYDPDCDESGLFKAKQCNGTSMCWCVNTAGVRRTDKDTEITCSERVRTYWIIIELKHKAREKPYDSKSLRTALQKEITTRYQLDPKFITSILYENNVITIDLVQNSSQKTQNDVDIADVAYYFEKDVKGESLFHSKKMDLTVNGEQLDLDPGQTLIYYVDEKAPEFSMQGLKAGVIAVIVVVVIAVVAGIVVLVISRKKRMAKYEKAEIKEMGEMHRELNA
Assay: surface plasmon resonance imaging (SPRi) test of binding ability of chip-spotted peptoid to EpCAM protein
Settings: EpCAM 5.68-91.2 nM in PBS, binding 300 s, dissociation 300 s, fitted with BIAevalution 4.1, read-out: equilibrium dissociation constant KD

`NCCCCNC(=O)CN(CCc1ccc(-c2ccccc2)cc1)C(=O)CN(CCC(=O)O)C(=O)CNCCc1ccccc1` [Formula II] showed a Kd of 18.7 nM.
